Measurements: ChEMBL document CHEMBL1142012, “Synthesis and SAR of 4-(3-hydroxyphenylamino)pyrrolo[2,1-f][1,2,4]triazine based VEGFR-2 kinase inhibitors” (Bioorg Med Chem Lett, 2005)
One block for each compound: values may come before it.

What was measured:
[1] = molecular target: Vascular endothelial growth factor receptor 2 (Homo sapiens, UniProt P35968); assay: Inhibitory concentration against Vascular endothelial growth factor receptor 2
Cell line [2] = assay: Inhibitory concentration against Human umbilical vein endothelial cells stimulated by VEGF was determined; format: functional, cell-based
Homo sapiens = organism: Homo sapiens; settings: Liver, Microsome
[3] = Area under the concentration time curve (0-4 hr) value in mouse after 50 mg/kg oral dosage; format: ADME, organism-based; set-up: time < 4 hr, dose 50 mg/kg, route oral; settings: in vivo
[4] = Maximum plasma concentration in mouse after 50 mg/kg oral dosage; format: ADME, organism-based; set-up: dose 50 mg/kg, route oral
[5] = Glucuronidation in human liver microsomes was determined; format: ADME, Microsome
Cell line [6] = assay: Inhibitory concentration against Human umbilical vein endothelial cells stimulated by VEGF was determined;NA= not active; format: functional, cell-based

Vascular endothelial growth factor receptor 2, sequence (P35968 whole entry): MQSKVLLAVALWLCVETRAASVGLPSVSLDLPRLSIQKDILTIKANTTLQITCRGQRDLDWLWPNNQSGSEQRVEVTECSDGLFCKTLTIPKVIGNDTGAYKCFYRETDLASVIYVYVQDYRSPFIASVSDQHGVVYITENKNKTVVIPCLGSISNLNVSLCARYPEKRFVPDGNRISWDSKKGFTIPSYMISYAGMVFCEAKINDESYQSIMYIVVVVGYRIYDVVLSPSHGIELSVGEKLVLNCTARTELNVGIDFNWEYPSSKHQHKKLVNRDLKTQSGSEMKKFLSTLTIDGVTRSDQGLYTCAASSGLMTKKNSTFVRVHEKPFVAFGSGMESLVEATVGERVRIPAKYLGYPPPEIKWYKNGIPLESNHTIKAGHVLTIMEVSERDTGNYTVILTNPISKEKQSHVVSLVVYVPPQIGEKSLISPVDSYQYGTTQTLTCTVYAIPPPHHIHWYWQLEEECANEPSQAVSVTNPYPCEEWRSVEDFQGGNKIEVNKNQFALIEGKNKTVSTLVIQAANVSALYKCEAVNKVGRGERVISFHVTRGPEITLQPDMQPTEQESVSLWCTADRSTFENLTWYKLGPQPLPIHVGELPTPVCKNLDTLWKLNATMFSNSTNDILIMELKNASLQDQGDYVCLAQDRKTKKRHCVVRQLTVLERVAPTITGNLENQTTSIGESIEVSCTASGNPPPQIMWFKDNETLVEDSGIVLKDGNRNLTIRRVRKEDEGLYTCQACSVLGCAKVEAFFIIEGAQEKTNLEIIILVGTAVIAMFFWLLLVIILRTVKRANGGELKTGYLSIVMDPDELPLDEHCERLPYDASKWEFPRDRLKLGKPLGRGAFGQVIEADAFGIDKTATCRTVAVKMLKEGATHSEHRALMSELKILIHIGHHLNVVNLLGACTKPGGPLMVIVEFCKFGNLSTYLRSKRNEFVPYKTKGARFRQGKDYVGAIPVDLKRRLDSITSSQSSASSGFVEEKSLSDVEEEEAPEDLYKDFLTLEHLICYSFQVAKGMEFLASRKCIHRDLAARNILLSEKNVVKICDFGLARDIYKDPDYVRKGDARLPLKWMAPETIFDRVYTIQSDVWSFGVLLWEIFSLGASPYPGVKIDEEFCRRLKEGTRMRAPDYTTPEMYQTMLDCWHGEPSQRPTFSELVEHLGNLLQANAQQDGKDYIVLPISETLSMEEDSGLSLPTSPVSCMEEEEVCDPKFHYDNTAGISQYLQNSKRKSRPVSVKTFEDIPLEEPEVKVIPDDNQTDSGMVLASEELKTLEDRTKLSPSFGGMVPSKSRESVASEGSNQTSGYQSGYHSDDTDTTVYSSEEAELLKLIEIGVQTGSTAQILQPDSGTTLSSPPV

Compound: COC(=O)c1cn2ncnc(Nc3ccc(C(F)(F)F)c(O)c3)c2c1C
IC50 [1]: 370 nM

Compound: CCCc1c(C(=O)NCCCN2CCCC2)cn2ncnc(Nc3ccc(C)c(O)c3)c12
IC50 [1]: 90 nM | IC50 (Cell line [2]): 35 nM

Compound: CCOC(=O)c1cn2ncnc(Nc3ccc(C)c(O)c3)c2c1OCC
IC50 [1]: 64 nM | IC50 (Cell line [2]): 40 nM

Compound: Cc1ccc(Nc2ncnn3cc(C(=O)NCCCn4nccn4)c(C)c23)cc1O
IC50 [1]: 30 nM | IC50 (Cell line [2]): 20 nM | Glucuronidation (Homo sapiens): 0.21 nmol/min/mg

Compound: CCc1ccc(Nc2ncnn3cc(C(=O)OC)c(C)c23)cc1O
IC50 [1]: 55 nM

Compound: Cc1ccc(Nc2ncnn3cc(C(=O)NCCCN4CCOCC4)c(C)c23)cc1O
IC50 [1]: 52 nM | IC50 (Cell line [2]): 3 nM | Glucuronidation (Homo sapiens): 0.01 nmol/min/mg

Compound: COCCCNC(=O)c1cn2ncnc(Nc3ccc(C)c(O)c3)c2c1C
IC50 [1]: 150 nM | Glucuronidation (Homo sapiens): 0.16 nmol/min/mg

Compound: Cc1ccc(Nc2ncnn3cc(C(=O)NCCCN4CCCC4)c(C(C)C)c23)cc1O
AUC(0-t) at 4 h [3]: 0.267 µM·h | IC50 [1]: 18 nM | IC50 (Cell line [2]): 8 nM | Cmax [4]: 166 nM | Glucuronidation (Homo sapiens): 0.02 nmol/min/mg

Compound: COC(=O)c1cn2ncnc(Nc3cccc(O)c3)c2c1C
IC50 [1]: 61 nM

Compound: CCCc1ccc(Nc2ncnn3cc(C(=O)OC)c(C)c23)cc1O
IC50 [1]: 190 nM

Compound: Cc1ccc(Nc2ncnn3cc(C(=O)NCCCN4CCCC4)c(C)c23)cc1O
IC50 [1]: 40 nM | IC50 (Cell line [2]): 10 nM | Glucuronidation [5]: 0.01 nmol/min/mg

Compound: COC(=O)c1cn2ncnc(Nc3ccc(Br)c(O)c3)c2c1C
IC50 [1]: 33 nM

Compound: COC(=O)c1cn2ncnc(Nc3ccc(C(C)C)c(O)c3)c2c1C
IC50 [1]: 380 nM

Compound: COC(=O)c1cn2ncnc(Nc3ccc(C)c(O)c3)c2c1C(C)(C)C
IC50 [1]: 310 nM | IC50 (Cell line [6]): Not Active

Stronger by IC50 [1], values ahead:

IC50 [1]: 14 nM | IC50 (Cell line [2]): 4 nM
Compound: CCOC(=O)c1cn2ncnc(Nc3ccc(C)c(O)c3)c2c1C(C)C

IC50 [1]: 4 nM | IC50 (Cell line [2]): 1 nM
Compound: Cc1ccc(Nc2ncnn3cc(OCCCN4CCCCC4)c(C(C)C)c23)cc1O
Glucuronidation (Homo sapiens): 0.03 nmol/min/mg

IC50 [1]: 7 nM
Compound: Cc1ccc(Nc2ncnn3cc(NC(=O)OCCCn4nccn4)c(C(C)C)c23)cc1O
Glucuronidation (Homo sapiens): 0.9 nmol/min/mg

IC50 [1]: 3 nM | IC50 (Cell line [2]): 6 nM
Compound: CCCc1c(C(=O)OCC)cn2ncnc(Nc3ccc(C)c(O)c3)c12

IC50 [1]: 5 nM | IC50 (Cell line [2]): 5 nM
Compound: Cc1ccc(Nc2ncnn3cc(NC(=O)NCCCN4CCCCC4)c(C(C)C)c23)cc1O
Glucuronidation (Homo sapiens): 0.04 nmol/min/mg

IC50 [1]: 10 nM
Compound: COC(=O)c1cn2ncnc(Nc3ccc(C)c(O)c3)c2c1C

IC50 [1]: 5 nM | IC50 (Cell line [2]): 1 nM
Compound: Cc1ccc(Nc2ncnn3cc(NC(=O)OCCCN4CCCCC4)c(C(C)C)c23)cc1O
Glucuronidation (Homo sapiens): 0.08 nmol/min/mg
